In the NIST ThermoML archive (doi:10.1021/je040002p):
± gives the expanded uncertainty stated by the source.

What was measured:
[1] = Liquid; for mass density: 101.33 kPa, Pycnometric method
[2] = refractive index (Na D-line) (dimensionless); settings: 101.33 kPa, Liquid, Standard Abbe refractometry

OC1CCCCC1 [cyclohexanol]
mass density ([1]; 303.15 K): 941.6 ± 0.9 kg/m3 | Normal boiling temperature [1]: 160.74 ± 0.14 °C | refractive index ([2]; 303.15 K): 1.4621 ± 0.0007

CCCCCCCCC [nonane]
mass density ([1]; 293.15 K): 717.6 ± 0.7 kg/m3 | Normal boiling temperature [1]: 150.82 ± 0.14 °C | refractive index ([2]; 293.15 K): 1.4055 ± 0.0007

CCCCC(C)=O [2-hexanone]
mass density ([1]; 293.15 K): 811.2 ± 0.8 kg/m3 | Normal boiling temperature [1]: 127.54 ± 0.13 °C | refractive index ([2]; 293.15 K): 1.4008 ± 0.0007
